# Data from patent US10517961B2, “Drug formulation based on particulates comprising polysaccharide-vitamin conjugate” (ZY Therapeutics, Inc., priority 2015, dated 2019).
# Test system: human non-small lung cancer cells
# Assay: In vitro cytotoxicity
# Format: cell-based
# Conditions: 72 hrs, cell survival ratio
smiles,measurement,value
CC(=O)O[C@H]1C(=O)[C@@]2(C)[C@H]([C@H](OC(=O)c3ccccc3)[C@]3(O)C[C@H](OC(=O)[C@H](O)[C@@H](NC(=O)c4ccccc4)c4ccccc4)C(C)=C1C3(C)C)[C@]1(OC(C)=O)CO[C@@H]1C[C@@H]2O [paclitaxel],IC50,~0.01 µM
